Test results as given in US20060270841A1, “Assays to monitor amyloid precursor protein processing” (priority 2002, published 2006).

Experiments:
Format in all cases: cell-based
APP processing [1] = assay: APP/TAT fusion protein with LTR-EGFP reporter (pMM321), transient transfection in HEK293T cells (Example 2); settings: for # Bright / # Med / # Non / # Strong: count from photographs; for fluorometer reading: 293T, 10 uM 458, 100,000 cells
Description: (§1) “pcDNA3.1 zeo (+) APP(1-651)SW, K612V-(M1L)TATexonI,” “pMM321,” and “pUCd5TAT” are the same as in Example 1. H4 cells (ATCC HTB-148) are a neuronal cell line.
(§2) • Day 1: Plated out 2×6 well plates of HEK293T cells and 2×6 well plates of H4 cells at 1×10^5 cells/well. • Day 2: Transfected cells with 2 μg total DNA—pcDNA3.1 zeo (+) APP(1-651)SW, K612V-(M1L)TATexonI and carrier (a pET-IN plasmid). Plate 1:
(§3) 3,4: 0.1 μg pMM321+0.1 μg pcDNA3.1 zeo (+) APP(1-651)SW, K612V-(M1L)TATexonI+1.8 μg carrier (added too 0.5×carrier to this mix in 293T cells)
Transfections for HEK293T cells: 9 μL Fugene/well. Combined with DNA in Optimem and incubated and added to cells according to manufacturer's instructions.
(§4) Added 10 μM L-685,458 to Plates 1 and 2, wells 2 and 4 for both cell types within 1 hour of transfection. Observed cells periodically.
(§5) Took pictures at 24, 46 hours after transfection, using AE lock to keep exposures constant between wells.
(§6) Changed media on cells at 24 hours past transfection. Kept 10 μM L-685,458 on cells in wells 2 and 4.
Took some photographs under fluorescent and white light (white light at low intensity) to reveal fluorescent and non-fluorescent cells. Conducted a subjective analysis of the photographs to see if the amount of inhibition by 10 μL-685,458 was in any way quantifiable. Counted bright (white in the middle), strong (blue middle), medium (green) and dim/non-fluorescent cells and determined the approximate fraction of each level of expression. Results follow:
(§7) 100,000 cells from each well were trypsinized and placed in 0.1 mL phenol red-free media in a Costar 96-well dish and read using the fluorometer.

APP processing [2] = assay: APP/TAT fusion protein with LTR-EGFP reporter (pMM321), transient transfection in H4 cells (Example 2); settings: for fluorometer reading: 10 uM 458, 100,000 cells
Description: as §1, §2, §3
Transfections for H4 cells: 6 μL Fugene/well. Combined with DNA in Optimem and incubated and added to cells according to manufacturer's instructions.
as §4, §5, §6, §7

Aβ = assay: Production of Aβ in conditioned media of transfected 293T and H4 cells; settings: 10 μM L-685,458, 1 mL conditioned media
Description: 1 mL of conditioned media from each well was analyzed for production of Aβ.

APP processing [3] = assay: APP/TAT fusion protein with LTR-GFP reporter in H4 cells, FLUOstar reading (Example 3); settings: for Fluor Units: approximately 48 hours, 485 excitation/538 emission
Description: 1. H4 cells (ATCC HTB-148) were transfected with the various constructs listed below using 6 μL Fugene per 100 μL Optimem and 100 μL Optimem per well (6-well dishes). Transfection reactions were incubated for 30 minutes prior to adding 100 μL dropwise onto wells.
Transfections were done as follows:
1. 1 μg pMM321 (FIG. 25A-D) and 1 μg pcDNA3.1 backbone
1a. 1 μg pMM321 and 1 μg pcDNA3.1 (Invitrogen, San Diego, Calif.) backbone. Prior to transfection, 10 μM L-875,532 (γ-secretase inhibitor) was added to the well.
2. 1 μg pMM321 and 1 μg pRBR186 (FIG. 22A; APP expression vector; processing and inhibition of processing control)
2a. 1 μg pMM321 and 1 μg pRBR186. Prior to transfection, 10 μM L-875,532 was added to cells (transfection solution for 3-5 were prepared in bulk)
4. and 4a. 1 μg pMM321 and 1 μg pcDNA3.1 zeo (+) APP(1-651)SW, K612V-(M1L)TATexonI. Prior to transfection, 10 μM L-875,532 was added to the two wells.
5. and 5a. 1 μg pMM321 and 1 μg pcDNA3.1 zeo (+) APP(1-651)SW, K612V-(M1L)TATexonI. Prior to transfection, 10 μM Compound X was added to the two wells
7. 1 μg pMM321 and 1 μg pUCd5 TAT. Prior to transfection, 10 μM L-875,532 was added to the cells.
Cells were assessed by eye under a fluorescence microscope the morning following transfection (˜20 hrs).
At approximately 48 hours, cells were trypsinized, spun down, and resuspended in 100 μL PBS. The cellular contents of each well of the transfection plates were placed into one well of a 96-well fluorescence plate. Fluorescence was analyzed using the FLUOstar (485 excitation/538 emission).

APP processing [4] = assay: APP-TAT-APPct32 fusion protein with LTR β-galactosidase reporter in P4-R5 HeLa cells (Example 8); settings: 10 μM inhibitor
Description: P4-R5 cells are HeLa cells that contain a stably integrated β-galactosidase reporter gene under the control of the HIV1 LTR.
1.) Cell count on P4-R5 cells=7.6×10^5 cells per ml in cDMEM (−)PR. Seeded sterile white luminometer TC plates with the following cell numbers:
• 5×10^3/well=0.75 ml in 9.25 ml media • 1.0×10^4/well=1.5 ml in 8.5 ml media • Seeded 100 μL cells per well. • Incubate overnight at 37° C., 5% CO2. Day 2
2.) Made up media with appropriate dilutions of inhibitors. • On no-inhibitor controls, added 100 μL of cDMEM with 1% DMSO • On wells with Compound X, added 10 μM inhibitor in cDMEM • On wells with L-875,532, added 10 μM inhibitor in cDMEM
3.) Prior to transfection, pulled off media on P4-R5 cells and replaced with media −/+inhibitor. • FUGENE® transfection: • For FUGENE® transfection:
4.) Added 600 μL of OPTIMEM® to sterile EPPENDORF® tube and carefully added 30 μL FUGENE® to media, without touching walls of tube. Incubated at room temperature for 5 minutes. • In separate EPPENDORF® tubes, added each DNA. • Added FUGENE®/OPTIMEM® dropwise to DNA; incubated at room temperature for 15 minutes.
Added 15 μL/well of DNA/FUGENE®/OPTIMEM® dropwise to media in appropriate wells on P4-R5 cells, swirling to mix. […]
6. Read immediately in luminometer using standard file. Filled in required fields, read plate.

[5] = 293T cells, 46 hours, 1 μg pMM321 + 0.1 μg APP/TAT vector + cmpd (10 μM)
[6] = 293T cells, 46 hours, 1 μg pMM321 + 1 μg APP/TAT vector + cmpd (10 μM), approximate fraction of cells
[7] = 293T cells, 46 hours, 1 μg pMM321 + 1 μg APP/TAT vector + cmpd (10 μM)

CC(C)C[C@H](NC(=O)[C@H](Cc1ccccc1)C[C@@H](O)[C@H](Cc1ccccc1)NC(=O)OC(C)(C)C)C(=O)N[C@@H](Cc1ccccc1)C(N)=O [L-685,458, {1S-Benzyl-4R-[1-(1S-carbamoyl-2-phenylethylcarbamoyl)-1S-3-methylbutylcarbamoyl]-2R-hydroxy-5-phenylpentyl}carbamic acid tert-butyl ester] was tested, and the “inhibition of GFP” value (APP processing [1]; 10 μM L-685,458, same wells as the Aβ analysis (293T and H4 cells)) was “substantial inhibition of GFP was not observed”, the “inhibition of fluorescence (fluorometer)” value (APP processing [1]; 293T cells, 0.1 μg APP/TAT vector + 0.1 μg pMM321, 10 μM L-685,458) was “Inhibition of fluorescence was also observed” and the “inhibition of fluorescence (fluorometer)” value (APP processing [1]; 293T cells, 1 μg APP/TAT vector + 1 μg pMM321, 10 μM L-685,458) was “reduced to background levels”. The “effect on numbers of fluorescing cells (Table 1, second run)” value (APP processing [1]; 293T cells, 1 μg pMM321 + 0.1 μg APP/TAT vector, with vs without cmpd) was “fewer bright and strong fluorescing cells as well as more non-fluorescent cells”, the “effect on numbers of fluorescing cells (Table 1, first run)” value (APP processing [1]; 293T cells, 1 μg pMM321 + 1 μg APP/TAT vector, with vs without cmpd) was “fewer strong and medium fluorescing cells as well as more non-fluorescent cells” and the “# Bright” value (APP processing [1]; [5]) was 23. For the same compound, the “# Med” value (APP processing [1]; [5]) was 149, the “# Non” value (APP processing [1]; [5]) was 194 and the “# Strong” value (APP processing [1]; [5]) was 32. The “% Med” value (APP processing [1]; [6]) was 11%, the “% Non” value (APP processing [1]; [6]) was 88% and the “% Strong” value (APP processing [1]; [6]) was 0.8%. For the same compound, the “# Bright” value (APP processing [1]; [7]) was “none”, the “# Med” value (APP processing [1]; [7]) was 66 and the “# Non” value (APP processing [1]; [7]) was 521. For the same compound, the “# Strong” value (APP processing [1]; [7]) was 5, the fluorometer reading (APP processing [1]; 0.1 ug LTRGFP, 0.1 ug APPtat) was 14790 and the fluorometer reading (APP processing [1]; 0.1 ug LTRGFP, 1 ug APPTAT) was 10491. The fluorometer reading (APP processing [1]; 1 ug LTRGFP, 0.1 ug APPtat) was 65535, the fluorometer reading (APP processing [1]; 1 ug LTRGFP, 1 ug APPTAT) was 14321 and the “green (GFP) cells observed” value (APP processing [1]; HEK293T cells, 24 hours, 0.1 μg pMM321 + 0.1 μg APP/TAT vector, 10 μM L-685,458) was “Bright, medium, and dim green cells”. For the same compound, the “green (GFP) cells observed” value (APP processing [1]; HEK293T cells, 24 hours, 0.1 μg pMM321 + 1 μg APP/TAT vector, 10 μM L-685,458) was “Bright, medium, and dim green cells”, the “green (GFP) cells observed” value (APP processing [1]; HEK293T cells, 24 hours, 1 μg pMM321 + 0.1 μg APP/TAT vector, 10 μM L-685,458) was “Fewer bright green cells/field but intensity does not appear strongly diminished” and the “green (GFP) cells observed, of 15 cells” value (APP processing [1]; HEK293T cells, 24 hours, 1 μg pMM321 + 1 μg APP/TAT vector, 10 μM L-685,458) was 6 very dim, 5 dim, 1 medium, 3 bright. The fluorometer reading (APP processing [2]; H4, 0.1 ug LTRGFP, 0.1 ug APPtat) was 6957, the fluorometer reading (APP processing [2]; H4, 0.1 ug LTRGFP, 1 ug APPTAT) was 10031 and the fluorometer reading (APP processing [2]; H4, 1 ug LTRGFP, 0.1 ug APPtat) was 7136. For the same compound, the fluorometer reading (APP processing [2]; H4, 1 ug LTRGFP, 1 ug APPTAT) was 25307, the bright green cells/field (APP processing [2]; H4 cells, 24 hours, 0.1 μg pMM321 + 1 μg APP/TAT vector, 10 μM L-685,458) was 3-5 cells/field and the “green (GFP) cells observed under the microscope” value (APP processing [2]; H4 cells, 24 hours, 1 ug pMM321 + 1 ug APP/TAT vector, 10 μM L-685,458) was “reduced compared with well #1”. For the same compound, the “inhibition of fluorescence (fluorometer)” value (APP processing [2]; H4 cells, any transfection conditions, 10 μM L-685,458) was “No inhibition of fluorescence was observed” and the “Aβ in conditioned media” value (Aβ) was “completely inhibited to background levels”.

For C[C@H](NC(=O)Cc1cc(F)cc(F)c1)C(=O)N[C@H]1N=C(c2ccccc2)c2ccccc2N(C)C1=O [L-875,532], the “Fluor Units” value (APP processing [3]; pMM321 + APP-TAT-ct32, 10 μM inhibitor) was 8283 Fluor Units, the “decrease of fluorescence (fold)” value (APP processing [3]; pMM321 + APP/TAT vector, 10 μM inhibitor vs no inhibitor) was 2.5 × and the “Fluor Units” value (APP processing [3]; pMM321 + pRBR186 (control), 10 μM inhibitor) was 2161 Fluor Units. For the same compound, the “Fluor Units” value (APP processing [3]; pMM321 alone (control), 10 μM inhibitor) was 3443 Fluor Units, the “fluorescence assessed by eye under a fluorescence microscope” value (APP processing [3]; ~20 hrs, 1 μg pMM321 + 1 μg APP/TAT vector, 10 μM inhibitor) was “Clear inhibition of fluorescence” and the “transactivation of the LTR by pUCd5TAT (control)” value (APP processing [4]) was “not affected by either inhibitor”.
